How the values were obtained:
p110 alpha = p110 alpha (Homo sapiens (Human), UniProt P42336); experiment: PI3K isoform inhibition assay, p110 alpha (for alpha/delta selectivity); details: ratio of biochemical IC50 values
Description: (§1) PI3K enzymatic activity was assayed by measuring the amount of product phosphatidylinositol 3,4,5-phosphate (PIP3) formed from substrate 4,5 phosphatidylinositol 4,5-phosphate (PIP2) using a fluorescence polarization displacement assay. The decrease in fluorescence polarization of a fluorescent PIP3 probe is measured as it is displaced from a PIP3-binding protein GRP-1 detector by PI3K-catalyzed product. […] The kinase reactions were initiated by the addition of 40 ng/mL p110α/p85α, 300 ng/mL p110β/p85α, 40 ng/mL p110γ, or 40 ng/mL p110δ/p85α (Upstate Group, Millipore; Dundee, UK), and 10 μM PIP2 (Echelon Biosciences) to the wells. […] After 60 minutes of incubation at room temperature to allow equilibration of labeled and unlabeled PIP3 binding, the parallel and perpendicular components of the fluorescence emissions from each sample were measured at an excitation wavelength of 530 nm and an emission wavelength of 590 nm using an Envision fluorescent plate reader with a rhodamine filter (PerkinElmer Life and Analytical Sciences; Wellesley, Mass.). The assay is capable of detecting 0.1-2.0 μM PIP3 product. The IC50 values were obtained by fitting the dose-dependent inhibition data to a 4-parameter equation using Assay Explorer software (MDL, San Ramon, Calif.).
The same protocol may be used to establish IC50 values for p110α (alpha) PI3K binding.
(§2) The four Class I PI 3-kinases are cloned into baculovirus vectors as follows: […]

p110 delta = p110 delta (Homo sapiens (Human), UniProt O00329); experiment: PI3K isoform inhibition assay, p110 delta (fluorescence polarization displacement); format: biochemical
Description: as §1
The Formula I compound was serially diluted in 100% DMSO. The kinase reaction was incubated for 1 h at room temperature, and the reaction was terminated by the addition of PBS. IC50 values were subsequently determined using sigmoidal dose-response curve fit (variable slope).
as §2

Sequence of p110 delta (O00329 whole entry, canonical isoform): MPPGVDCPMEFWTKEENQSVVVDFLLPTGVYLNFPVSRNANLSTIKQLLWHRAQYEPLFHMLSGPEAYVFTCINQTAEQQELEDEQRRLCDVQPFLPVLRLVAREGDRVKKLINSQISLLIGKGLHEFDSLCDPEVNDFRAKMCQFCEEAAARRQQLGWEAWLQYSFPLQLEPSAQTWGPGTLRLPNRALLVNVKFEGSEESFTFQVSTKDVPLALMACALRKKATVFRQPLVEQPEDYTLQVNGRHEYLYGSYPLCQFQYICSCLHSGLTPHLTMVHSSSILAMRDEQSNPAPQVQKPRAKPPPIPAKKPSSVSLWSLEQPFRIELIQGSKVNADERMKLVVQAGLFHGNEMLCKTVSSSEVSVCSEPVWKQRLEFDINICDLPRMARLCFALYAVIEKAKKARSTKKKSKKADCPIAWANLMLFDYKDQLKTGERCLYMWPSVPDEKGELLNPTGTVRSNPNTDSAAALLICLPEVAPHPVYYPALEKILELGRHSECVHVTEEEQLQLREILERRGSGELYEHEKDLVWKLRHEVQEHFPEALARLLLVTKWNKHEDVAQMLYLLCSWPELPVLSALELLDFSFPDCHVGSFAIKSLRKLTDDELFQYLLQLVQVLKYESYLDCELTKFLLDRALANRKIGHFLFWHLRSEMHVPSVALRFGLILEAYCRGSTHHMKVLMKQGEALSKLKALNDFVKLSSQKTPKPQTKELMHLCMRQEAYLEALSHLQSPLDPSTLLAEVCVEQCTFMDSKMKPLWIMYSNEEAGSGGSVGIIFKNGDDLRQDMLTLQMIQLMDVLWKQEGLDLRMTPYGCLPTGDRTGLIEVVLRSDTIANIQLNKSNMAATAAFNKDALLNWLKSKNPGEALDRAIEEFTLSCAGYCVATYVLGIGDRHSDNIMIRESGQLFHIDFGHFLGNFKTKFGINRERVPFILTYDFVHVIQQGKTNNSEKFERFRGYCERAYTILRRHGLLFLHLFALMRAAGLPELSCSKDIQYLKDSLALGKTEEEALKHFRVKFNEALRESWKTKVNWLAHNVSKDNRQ
Sequence of p110 delta (P27986 whole entry partner, canonical isoform): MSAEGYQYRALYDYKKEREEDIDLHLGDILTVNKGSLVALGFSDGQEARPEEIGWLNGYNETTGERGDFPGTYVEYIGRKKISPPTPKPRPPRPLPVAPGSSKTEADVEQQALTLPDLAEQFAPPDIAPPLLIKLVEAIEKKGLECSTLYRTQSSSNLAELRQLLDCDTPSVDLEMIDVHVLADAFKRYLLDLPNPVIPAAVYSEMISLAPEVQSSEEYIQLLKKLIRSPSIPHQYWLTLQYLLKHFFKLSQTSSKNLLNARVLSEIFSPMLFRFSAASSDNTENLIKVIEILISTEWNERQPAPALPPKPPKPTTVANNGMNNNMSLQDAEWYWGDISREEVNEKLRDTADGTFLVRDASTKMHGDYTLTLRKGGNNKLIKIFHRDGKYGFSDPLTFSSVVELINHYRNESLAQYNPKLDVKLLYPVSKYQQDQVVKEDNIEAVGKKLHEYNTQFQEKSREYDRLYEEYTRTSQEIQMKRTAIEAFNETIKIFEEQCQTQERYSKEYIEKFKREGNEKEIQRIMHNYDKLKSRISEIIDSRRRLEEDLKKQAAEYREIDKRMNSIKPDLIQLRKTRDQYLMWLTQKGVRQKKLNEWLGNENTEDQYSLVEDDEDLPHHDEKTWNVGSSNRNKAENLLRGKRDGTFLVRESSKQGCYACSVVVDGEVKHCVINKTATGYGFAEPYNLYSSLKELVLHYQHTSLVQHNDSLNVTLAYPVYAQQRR
Sequence of p110 alpha (P42336 whole entry, canonical isoform): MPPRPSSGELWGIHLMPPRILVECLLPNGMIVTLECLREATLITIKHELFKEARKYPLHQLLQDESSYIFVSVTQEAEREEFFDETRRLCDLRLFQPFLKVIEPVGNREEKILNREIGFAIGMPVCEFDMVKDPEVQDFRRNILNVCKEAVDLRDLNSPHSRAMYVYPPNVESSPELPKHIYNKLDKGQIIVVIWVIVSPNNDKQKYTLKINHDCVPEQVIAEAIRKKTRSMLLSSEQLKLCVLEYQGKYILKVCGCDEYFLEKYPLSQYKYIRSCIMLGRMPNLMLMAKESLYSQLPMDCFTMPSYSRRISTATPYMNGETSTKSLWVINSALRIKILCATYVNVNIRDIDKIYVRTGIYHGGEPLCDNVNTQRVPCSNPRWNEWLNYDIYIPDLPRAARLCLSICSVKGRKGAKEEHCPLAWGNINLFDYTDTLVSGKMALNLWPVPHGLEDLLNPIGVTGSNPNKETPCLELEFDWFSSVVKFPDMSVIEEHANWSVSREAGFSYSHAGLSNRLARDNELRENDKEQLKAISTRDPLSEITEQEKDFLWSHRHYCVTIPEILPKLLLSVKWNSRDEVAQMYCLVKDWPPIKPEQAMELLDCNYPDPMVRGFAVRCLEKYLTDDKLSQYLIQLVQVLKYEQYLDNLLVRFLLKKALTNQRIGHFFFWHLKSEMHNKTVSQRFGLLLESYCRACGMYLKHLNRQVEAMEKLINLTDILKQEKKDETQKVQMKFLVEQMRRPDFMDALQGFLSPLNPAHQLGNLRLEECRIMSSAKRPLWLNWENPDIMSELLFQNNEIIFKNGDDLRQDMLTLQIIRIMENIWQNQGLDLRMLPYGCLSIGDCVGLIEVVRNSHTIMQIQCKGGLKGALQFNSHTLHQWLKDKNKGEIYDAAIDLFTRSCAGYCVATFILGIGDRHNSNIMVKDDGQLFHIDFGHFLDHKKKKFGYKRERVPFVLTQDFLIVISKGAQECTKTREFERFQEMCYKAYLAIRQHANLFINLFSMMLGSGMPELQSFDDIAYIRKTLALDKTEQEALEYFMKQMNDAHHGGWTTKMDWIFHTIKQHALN
Sequence of p110 alpha (P27986 whole entry partner, canonical isoform): as the sequence (P27986 whole entry partner, canonical isoform) above

SMILES | IC50 p110 alpha/IC50 p110 delta (p110 alpha) | IC50 (p110 delta)
Cc1nc(-c2cn3c(n2)-c2ccc(OC4(CC5CC5)CN(C(C)C)C4)cc2OCC3)n(C(C)C)n1 [Example 283, 9-[3-(cyclopropylmethyl)-1-isopropyl-azetidin-3-yl]oxy-2-(2-isopropyl-5-methyl-1,2,4-triazol-3-yl)-5,6-dihydroimidazo[1,2-d][1,4]benzoxazepine] | 75.5 | 0.936 nM
Cc1nc(-c2cn3c(n2)-c2ccc(OC4(CC5CC5)CNC4)cc2OCC3)n(C(C)C)n1 [Example 284, 9-[3-(cyclopropylmethyl)azetidin-3-yl]oxy-2-(2-isopropyl-5-methyl-1,2,4-triazol-3-yl)-5,6-dihydroimidazo[1,2-d][1,4]benzoxazepine] | 23.9 | 2.9 nM
Cc1nc(-c2cn3c(n2)-c2ccc(-c4ccnn4C4CCCN(C5(C)COC5)C4)cc2OCC3)n(C(C)C)n1 (centres unmarked) [Example 285, 2-(2-isopropyl-5-methyl-1,2,4-triazol-3-yl)-9-[2-[1-(3-methyloxetan-3-yl)-3-piperidyl]pyrazol-3-yl]-5,6-dihydroimidazo[1,2-d][1,4]benzoxazepine] | 31.9 | 1.39 nM
Cc1nc(-c2cn3c(n2)-c2ccc(-c4cnn(C)c4C4CCCCN4CC(C)(C)O)cc2OCC3)n(C(C)C)n1 (centres unmarked) [Example 289, 1-[2-[4-[2-(2-isopropyl-5-methyl-1,2,4-triazol-3-yl)-5,6-dihydroimidazo[1,2-d][1,4]benzoxazepin-9-yl]-2-methyl-pyrazol-3-yl]-1-piperidyl]-2-methyl-propan-2-ol] | 13.1 | 0.852 nM
CC(C)n1nc(CO)nc1-c1cn2c(n1)-c1ccc(-c3ccnn3C3CCN(C)CC3)cc1OCC2 [Example 290, [1-isopropyl-5-[9-[2-(1-methyl-4-piperidyl)pyrazol-3-yl]-5,6-dihydroimidazo[1,2-d][1,4]benzoxazepin-2-yl]-1,2,4-triazol-3-yl]methanol] | 15.9 | 2.42 nM
Cc1nc(-c2cn3c(n2)-c2ccc(N4CCC4C4CCN(C(C)C)CC4)cc2OCC3)n(C(C)C)n1 (centres unmarked) [Example 293, 2-(2-isopropyl-5-methyl-1,2,4-triazol-3-yl)-9-[2-(1-isopropyl-4-piperidyl)azetidin-1-yl]-5,6-dihydroimidazo[1,2-d][1,4]benzoxazepine] | 10.3 | 1.47 nM
Cc1nc(-c2cn3c(n2)-c2cc([C@@H](C)N4CCN(C(C)(C)C)CC4)c(F)cc2OCC3)n(C(C)C)n1 [Example 294, (R)-10-(1-(4-tert-butylpiperazin-1-yl)ethyl)-9-fluoro-2-(1-isopropyl-3-methyl-1H-1,2,4-triazol-5-yl)-5,6-dihydrobenzo[f]imidazo[1,2-d][1,4]oxazepine] | 479 | 0.777 nM
Cc1nc(-c2cn3c(n2)-c2ccc(-c4ccnn4C4CCN(C(C)C)CC4)cc2OCC3)n(C(C)C)n1 [Example 296, 2-(2-isopropyl-5-methyl-1,2,4-triazol-3-yl)-9-[2-(1-isopropyl-4-piperidyl)pyrazol-3-yl]-5,6-dihydroimidazo[1,2-d][1,4]benzoxazepine] | 31.5 | 1.06 nM
Cc1nc(-c2cn3c(n2)-c2cc([C@H](C)N4CCN(C(C)(C)C)CC4)c(F)cc2OCC3)n(C(C)C)n1 [Example 297, (S)-10-(1-(4-tert-butylpiperazin-1-yl)ethyl)-9-fluoro-2-(1-isopropyl-3-methyl-1H-1,2,4-triazol-5-yl)-5,6-dihydrobenzo[f]imidazo[1,2-d][1,4]oxazepine] | 102 | 2.42 nM
CC(C)n1nc(N)nc1-c1cn2c(n1)-c1ccc(-c3ccnn3C3CCN(C)CC3)cc1OCC2 [Example 298, 1-isopropyl-5-[9-[2-(1-methyl-4-piperidyl)pyrazol-3-yl]-5,6-dihydroimidazo[1,2-d][1,4]benzoxazepin-2-yl]-1,2,4-triazol-3-amine] | 54.6 | 0.705 nM
Cc1nc(-c2cn3c(n2)-c2ccc(OC4(CC(C)C)CN(C(C)C)C4)cc2OCC3)n(C(C)C)n1 [Example 301, 9-(3-isobutyl-1-isopropyl-azetidin-3-yl)oxy-2-(2-isopropyl-5-methyl-1,2,4-triazol-3-yl)-5,6-dihydroimidazo[1,2-d][1,4]benzoxazepine] | 32.1 | 8.67 nM
Cc1nc(-c2cn3c(n2)-c2cc([C@H](C)N4CCN(C(C)(C)C)CC4)ncc2OCC3)n(C(C)C)n1 [Example 303, (S)-10-(1-(4-tert-butylpiperazin-1-yl)ethyl)-2-(1-isopropyl-3-methyl-1H-1,2,4-triazol-5-yl)-5,6-dihydroimidazo[1,2-d]pyrido[4,3-f][1,4]oxazepine] | 113 | 1.92 nM
CCN1CCC(C2CCCN2c2ccc3c(c2)OCCn2cc(-c4nc(C)nn4C(C)C)nc2-3)CC1 (centres unmarked) [Example 304, 9-[2-(1-ethyl-4-piperidyl)pyrrolidin-1-yl]-2-(2-isopropyl-5-methyl-1,2,4-triazol-3-yl)-5,6-dihydroimidazo[1,2-d][1,4]benzoxazepine] | 36.4 | 0.52 nM
Cc1nc(-c2cn3c(n2)-c2cc([C@@H](C)N4CCN(C(C)(C)C)CC4)ncc2OCC3)n(C(C)C)n1 [Example 305, (R)-10-(1-(4-tert-butylpiperazin-1-yl)ethyl)-2-(1-isopropyl-3-methyl-1H-1,2,4-triazol-5-yl)-5,6-dihydroimidazo[1,2-d]pyrido[4,3-f][1,4]oxazepine] | 28.6 | 2.81 nM
Cc1nc(-c2cn3c(n2)-c2ccc(N4CCCC4C4CCN(S(C)(=O)=O)CC4)cc2OCC3)n(C(C)C)n1 (centres unmarked) [Example 306, 2-(2-isopropyl-5-methyl-1,2,4-triazol-3-yl)-9-[2-(1-methylsulfonyl-4-piperidyl)pyrrolidin-1-yl]-5,6-dihydroimidazo[1,2-d][1,4]benzoxazepine] | 12.4 | 1.18 nM
Cc1nc(-c2cn3c(n2)-c2ccc(N4CCCC4C4CCCN(C)C4)cc2OCC3)n(C(C)C)n1 (centres unmarked) [Example 311, 2-(2-isopropyl-5-methyl-1,2,4-triazol-3-yl)-9-[2-(1-methyl-3-piperidyl)pyrrolidin-1-yl]-5,6-dihydroimidazo[1,2-d][1,4]benzoxazepine] | 46.8 | 1.35 nM
Cc1nc(-c2cn3c(n2)-c2ccc(N4CCCC45CCCN(C)C5)cc2OCC3)n(C(C)C)n1 (centres unmarked) [Example 314, 2-(2-isopropyl-5-methyl-1,2,4-triazol-3-yl)-9-(7-methyl-1,7-diazaspiro[4.5]decan-1-yl)-5,6-dihydroimidazo[1,2-d][1,4]benzoxazepine] | 50.1 | 0.335 nM
Cc1nc(-c2cn3c(n2)-c2cc(-c4ccnn4[C@@H]4CCCN(C(C)C)C4)c(F)cc2OCC3)n(C(C)C)n1 [Example 315, (R)-9-fluoro-2-(1-isopropyl-3-methyl-1H-1,2,4-triazol-5-yl)-10-(1-(1-isopropylpiperidin-3-yl)-1H-pyrazol-5-yl)-5,6-dihydrobenzo[f]imidazo[1,2-d][1,4]oxazepine] | 25.8 | 0.44 nM
Cc1nc(-c2cn3c(n2)-c2cc(-c4ccnn4[C@H]4CCCN(C(C)C)C4)c(F)cc2OCC3)n(C(C)C)n1 [Example 316, (S)-9-fluoro-2-(1-isopropyl-3-methyl-1H-1,2,4-triazol-5-yl)-10-(1-(1-isopropylpiperidin-3-yl)-1H-pyrazol-5-yl)-5,6-dihydrobenzo[f]imidazo[1,2-d][1,4]oxazepine] | 214 | < 0.035 nM
Cc1nc(-c2cn3c(n2)-c2ccc(-c4cnc(C)n4C4CCCN(C(C)C)C4)cc2OCC3)n(C(C)C)n1 (centres unmarked) [Example 317, 2-(2-isopropyl-5-methyl-1,2,4-triazol-3-yl)-9-[3-(1-isopropyl-3-piperidyl)-2-methyl-imidazol-4-yl]-5,6-dihydroimidazo[1,2-d][1,4]benzoxazepine] | 22.3 | 6.51 nM
Cc1nc(-c2cn3c(n2)-c2ccc(N4CCCC45CCCN(C)C5)cc2OCC3)n(C(C)C)n1 (centres unmarked) [Example 318, 2-(2-isopropyl-5-methyl-1,2,4-triazol-3-yl)-9-(7-methyl-1,7-diazaspiro[4.5]decan-1-yl)-5,6-dihydroimidazo[1,2-d][1,4]benzoxazepine] | 29.4 | 0.178 nM
Cc1nc(-c2cn3c(n2)-c2ccc(N4CCCC4C4CCCN(C)C4)cc2OCC3)n(C(C)C)n1 (centres unmarked) [Example 319, 2-(2-isopropyl-5-methyl-1,2,4-triazol-3-yl)-9-[2-(1-methyl-3-piperidyl)pyrrolidin-1-yl]-5,6-dihydroimidazo[1,2-d][1,4]benzoxazepine] | 26.3 | 2.81 nM
